Measured values taken from publication PMC6315376 (Cell Reports, 2019).

Assays:
phospho-AP2M1 (Thr156) = assay: Western blot of phospho-AP2M1; type: cell-based, human; conditions: HEK293T cells, 2 hr, concentration-dependent
LRP6 surface levels = assay: LRP6 surface staining by flow cytometry in HEK293T cells; type: cell-based, human; conditions: co-treatment with WNT3A, 8 hr
LRP6 = assay: Western blot of endogenous LRP6 in HEK293T cells overexpressing AAK1; type: cell-based, human; conditions: FLAG-AAK1 overexpression, 100 nm, 6 hr
[1] = tested on: β-catenin-activated Firefly luciferase reporter (BAR); assay: BAR luciferase reporter assay in HT1080-B/R stable cells; type: cell-based, human; conditions: AAK1 siRNA 56 hr, then treatment 16 hr
PIP5K1C = PIP5K1C (Homo sapiens, UniProt O60331); assay: PIP5K1C enzyme assay, ADP-Glo format; type: biochemical
AAK1 [2] = target: T1, AAK1 (Homo sapiens, UniProt Q2M2I8); assay: biochemical; conditions: IC50 for inhibition of AAK1 enzymatic activity, 46 μM ATP (at Km)
Target sequence in this assay (Q2M2I8 27-365): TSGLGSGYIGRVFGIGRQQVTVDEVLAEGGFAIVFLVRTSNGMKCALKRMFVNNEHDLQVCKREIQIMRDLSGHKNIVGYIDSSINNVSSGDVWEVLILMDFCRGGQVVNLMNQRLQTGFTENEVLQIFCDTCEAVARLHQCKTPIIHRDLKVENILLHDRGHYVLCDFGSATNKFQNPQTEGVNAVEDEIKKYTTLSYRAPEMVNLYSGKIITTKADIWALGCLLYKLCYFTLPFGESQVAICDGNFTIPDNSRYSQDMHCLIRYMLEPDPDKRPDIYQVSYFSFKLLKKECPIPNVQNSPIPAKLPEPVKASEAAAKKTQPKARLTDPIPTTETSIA

AAK1 [3] = target: T1, AAK1; assay: biochemical; type: binding
Target sequence in this assay (Q2M2I8 31-396): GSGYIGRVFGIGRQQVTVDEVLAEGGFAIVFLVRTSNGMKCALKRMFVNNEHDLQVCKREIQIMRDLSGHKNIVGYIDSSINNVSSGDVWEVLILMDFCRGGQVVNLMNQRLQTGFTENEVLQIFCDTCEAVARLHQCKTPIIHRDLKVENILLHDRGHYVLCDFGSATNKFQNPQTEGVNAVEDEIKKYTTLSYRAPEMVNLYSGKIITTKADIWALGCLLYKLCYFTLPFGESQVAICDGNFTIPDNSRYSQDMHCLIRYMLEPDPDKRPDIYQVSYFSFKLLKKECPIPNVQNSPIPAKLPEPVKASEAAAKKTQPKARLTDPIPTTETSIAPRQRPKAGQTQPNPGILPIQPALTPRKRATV

phospho-AP2M1 (T156) = assay: Western blot of phospho-AP2M1; type: cell-based, human; conditions: HT1080 cells, 1 μM, without WNT3A

Chain of PIP5K1C (O60331 whole entry): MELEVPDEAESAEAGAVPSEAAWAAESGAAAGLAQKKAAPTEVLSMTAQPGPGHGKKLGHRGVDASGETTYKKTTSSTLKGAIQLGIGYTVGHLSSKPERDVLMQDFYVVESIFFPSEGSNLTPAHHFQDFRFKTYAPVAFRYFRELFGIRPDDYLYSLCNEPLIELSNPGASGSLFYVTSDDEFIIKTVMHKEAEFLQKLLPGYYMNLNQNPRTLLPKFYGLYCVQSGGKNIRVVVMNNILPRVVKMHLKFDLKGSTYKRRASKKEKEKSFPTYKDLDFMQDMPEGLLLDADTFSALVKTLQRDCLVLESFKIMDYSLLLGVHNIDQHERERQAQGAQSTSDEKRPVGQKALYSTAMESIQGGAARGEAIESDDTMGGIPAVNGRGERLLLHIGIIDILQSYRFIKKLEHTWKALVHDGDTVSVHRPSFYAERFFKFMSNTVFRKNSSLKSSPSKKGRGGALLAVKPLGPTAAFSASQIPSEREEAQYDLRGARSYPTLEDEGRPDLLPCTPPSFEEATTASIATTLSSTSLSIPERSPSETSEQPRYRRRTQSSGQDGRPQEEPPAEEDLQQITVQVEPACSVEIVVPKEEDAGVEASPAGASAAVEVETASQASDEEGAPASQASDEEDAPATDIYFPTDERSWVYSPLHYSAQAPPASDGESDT

Question: For `CCN(CC)S(=O)(=O)Nc1cccc(-c2ccc3c(NC(=O)C4CC4)n[nH]c3c2)c1` [SGC-AAK1-1, N-(6-(3-((N,N-diethylsulfamoyl)amino)phenyl)-1H-indazol-3-yl)cyclopropanecarboxamide], which “phosphorylation of the AP2M1 subunit at Thr156” value (phospho-AP2M1 (Thr156)) is on record?
Answer: The value was “inhibited the phosphorylation of the AP2M1 subunit at Thr156”.

Question: And the “rescue of the WNT3A-induced decrease of LRP6 surface levels” value (LRP6 surface levels)?
Answer: The value was “rescued”.

Question: With `CO/C1=C\C(C)=C\[C@@H](C)[C@@H](O)[C@@H](C)C/C(C)=C/C=C/[C@H](OC)[C@@H]([C@@H](C)[C@@H](O)[C@H](C)[C@@]2(O)C[C@@H](O)[C@H](C)[C@@H](C(C)C)O2)OC1=O` [bafilomycin A1] as the molecule, how does the “AAK1-driven downregulation of LRP6” value (LRP6) read?
Answer: Its value is “rescued AAK1-driven downregulation of LRP6”.

Question: How did the “WNT signaling (BAR) induced by AAK1 silencing” value [1] turn out when `CN(C)CCCN1c2ccccc2Sc2ccc(Cl)cc21` [chlorpromazine] was run?
Answer: Its value is “suppressed WNT signaling induced by AAK1 silencing”.

Question: What does the source list for `CC(C)C(=O)Nc1n[nH]c2cc(-c3cccc(NS(=O)(=O)C4CC4)c3)ccc12` [34A, N-(6-(3-(cyclopropanesulfonamido)phenyl)-1H-indazol-3-yl)isobutyramide]?
Answer: IC50 (PIP5K1C): 3600 nM; IC50 (AAK1 [2]): > 1000 nM; Ki (AAK1 [3]): 2000 nM

Question: Which pAP2M1 levels (phospho-AP2M1 (T156)) does the source give for `Cc1c[nH]c(-c2cnc(NCCNc3ccc(C#N)cn3)nc2-c2ccc(Cl)cc2Cl)n1` [CHIR99021] here?
Answer: The pAP2M1 levels was “did not result in elevated pAP2M1 levels”.
